From patent US9314420B2, “Acellular bioabsorbable tissue regeneration matrices” (priority 2005, dated 2016)
Like-named read-outs stand apart in the source and are kept apart here.

What was measured:
[1] = system: Fibroblast control cultures; settings: by day 7
Method: The inhibitors were added on day 0 to the Opticells® on the day of first feeding (day 5 or 6). Thereafter, cultures were fed with regular media. Samples from the respective treatments and controls were collected on day 21 and analyzed.
Fibroblast control cultures containing 0, 10, 30 and 100 nM of α-amanitin were cultured for one week.

Neuroscreen® cells = experiment: Neuroscreen cell neurite outgrowth assay; type: cell-based, rat; settings: standard NGF response curve
Method: The Neuroscreen® cells responded by extending neurites.
Neuroscreen® cells were maintained prior to the interaction assay by routine culture on collagen coated plastic and subcultured at confluence using basal medium consisting of RPMI (Cat #10-040-CV, Mediatech), 4.0 mM Glutamine (CAT #25-005-CI, Mediatech) supplemented with 20% Horse Serum (Cat #35-030-CV, Mediatech), 10% Fetal Bovine Serum (Cat #35-010, Mediatech).
[…] Neuroscreen® cells were assayed for the formation of neurite process extension using immuno-staining for β-tubulin as follows. Cells were fixed after 4 days in culture by adding 10% v/v of 37% formaldehyde (Cat. #2106-01, J. T. Baker) directly to the culture medium in the well. […]
Only wells with cell counts above 100 cells per field were analyzed. […]
Human peripheral blood collected into ten 8 ml Vacutainer™ tubes containing K2EDTA was shipped overnight on ice and then placed vertically into a +4° C. fridge for 6 hours in order to allow the blood to gravity separate. […] After thoroughly mixing the contents of each conical tube, 10 ml quantities of the solutions were injected into separate sets of 5 Opticells™, and then placed horizontally into a 37° C., […], 2% O2, non-humidified incubator. […]

Row | Compound | Mortality ([1]; 10 nM) | Mortality ([1]; 30 nM) | Mortality ([1]; 100 nM) | Effect of fresh NGF at amounts less than 10 ng per well (Neuroscreen® cells) | NGF amount at which maximal responses occur (Neuroscreen® cells; fresh NGF)
1 | CC[C@H](C)[C@@H]1NC(=O)CNC(=O)[C@@H]2Cc3c([nH]c4cc(O)ccc34)[S+]([O-])C[C@@H](NC(=O)CNC1=O)C(=O)N[C@@H](CC(N)=O)C(=O)N1C[C@H](O)C[C@H]1C(=O)N[C@@H]([C@@H](C)[C@@H](O)CO)C(=O)N2 (stereo in doubt) [α-amanitin] | 60-70% | 80-90% | ~100% | – | –
2 | NGF: nerve growth factor, positive control at 100 ng/ml | – | – | – | limited or no effect | 100 ng of NGF per well
